The record followed here is ChEMBL document CHEMBL4699443, “Position of lipidation influences anticancer activity of Smac analogs” (Bioorg Med Chem Lett, 2019).

Type in all cases: functional, cell-based
A short description of test [1]: Antiproliferative activity against human CEM-R cells assessed as growth inhibition after 48 hrs by PrestoBlue dye based fluorescence assay.
The subject of the next test is BXPC-3. Description: Antiproliferative activity against human BxPC3 cells assessed as growth inhibition after 48 hrs by PrestoBlue dye based fluorescence assay. Particulars: BXPC-3, 48 h.
For a further test, the system named is MDA-MB-231. The test can be described thus: Antiproliferative activity against human MDA-MB-231 cells assessed as growth inhibition after 48 hrs by PrestoBlue dye based fluorescence assay. Particulars: MDA-MB-231, 48 h.
Test [2] is described as follows: Antiproliferative activity against human BTTR cells assessed as growth inhibition after 48 hrs by PrestoBlue dye based fluorescence assay.
A further test has as its system MOLT-4. The test can be described thus: Antiproliferative activity against human MOLT-4 cells assessed as growth inhibition after 48 hrs by PrestoBlue dye based fluorescence assay. Particulars: MOLT-4, 48 h.
A short description of test [3]: Antiproliferative activity against human COLO357/FG cells assessed as growth inhibition after 48 hrs by PrestoBlue dye based fluorescence assay. Particulars: COLO 357/FG.
In another test the test system is FaDu. Description: Antiproliferative activity against human FADU cells assessed as growth inhibition after 48 hrs by PrestoBlue dye based fluorescence assay.
The next test concerns SK-MEL-28. Description: Antiproliferative activity against human SK-MEL-28 cells assessed as growth inhibition after 48 hrs by PrestoBlue dye based fluorescence assay. Particulars: SK-MEL-28, 48 h.
Test [4] is described as follows: Antiproliferative activity against human UM-SCC-5 cells assessed as growth inhibition after 48 hrs by PrestoBlue dye based fluorescence assay. Particulars: UM-SCC-5, 48 h.
For the next test, the system named is NALM-6. The test can be described thus: Antiproliferative activity against human NALM6 cells assessed as growth inhibition after 48 hrs by PrestoBlue dye based fluorescence assay. Particulars: NALM-6, 48 h.
In another test the test system is DU-145. The test can be described thus: Antiproliferative activity against human DU145 cells assessed as growth inhibition after 48 hrs by PrestoBlue dye based fluorescence assay. Particulars: DU-145, 48 h.
The test system of the next test is HCC1954. The test can be described thus: Antiproliferative activity against human HCC1954 cells assessed as growth inhibition after 48 hrs by PrestoBlue dye based fluorescence assay. Particulars: HCC1954, 48 h.
The test system of the next test is VCaP. Description: Antiproliferative activity against human VCap cells assessed as growth inhibition after 48 hrs by PrestoBlue dye based fluorescence assay.
The test system of another test is MCF7. The test can be described thus: Antiproliferative activity against human MCF7 cells assessed as growth inhibition after 48 hrs by PrestoBlue dye based fluorescence assay. Particulars: MCF7, 48 h.
A short description of test [5]: Antiproliferative activity against human UM-SCC-6 cells assessed as growth inhibition after 48 hrs by PrestoBlue dye based fluorescence assay. Particulars: UM-SCC-6, 48 h.
The test system of another test is T84. Description: Antiproliferative activity against human T84 cells assessed as growth inhibition after 48 hrs by PrestoBlue dye based fluorescence assay. Particulars: T84, 48 h.
A short description of test [6]: Antiproliferative activity against human M249 cells assessed as growth inhibition after 48 hrs by PrestoBlue dye based fluorescence assay. Particulars: M249, 48 h.
The test system of the next test is SW480. Description: Antiproliferative activity against human SW480 cells assessed as growth inhibition after 48 hrs by PrestoBlue dye based fluorescence assay. Particulars: SW480, 48 h.

Starred links: 1 amine or outer side, 2 acyl side, 3 side chain; linkers in the order of their positions; H or OH if unused. Non-standard residues stand in square brackets, D forms with d. Residues, ends and D or L forms follow the SMILES beside them. Pro(cis-4-OPh) = O=C(O)[C@@H]1C[C@H](Oc2ccccc2)CN1; Bip = N[C@@H](Cc1ccc(-c2ccccc2)cc1)C(=O)O; Cysteamide = C(CS[*:3])N[*:1]; Tle = CC(C)(C)[C@H](N)C(=O)O; NMeA = CN[C@@H](C)C(=O)O

As a reminder, the EC50 is the concentration giving half of the maximal effect. With `CN[C@@H](C)C(=O)N[C@H](C(=O)N1C[C@@H](Oc2ccccc2)C[C@H]1C(=O)N[C@@H](Cc1ccc(-c2ccccc2)cc1)C(=O)NCCS)C(C)(C)C` (H-[NMeA][Tle][Pro(cis-4-OPh)][Bip]-Cysteamide), the EC50 stood at 2900 nM in test [1]; 4.1 µM in the test with BXPC-3; 6 µM with MDA-MB-231; 9 µM in test [2]; 2800 nM in the test with MOLT-4; 8 µM in [3]. Besides, the EC50 in the test with FaDu turned out to be 3.9 µM; in the test with SK-MEL-28 it was 6.1 µM; in test [4] it was 5.9 µM; in the test on NALM-6, 5.3 µM; with DU-145 it was 6.2 µM; in the test with HCC1954, 3.9 µM. The EC50 in the test with VCaP is 7 µM; in the test with MCF7, 10.2 µM; in [5], 6 µM; with T84 it was 6.2 µM; in test [6] it was 6.2 µM; in the test with SW480, 9.2 µM.
